# Source: paper PMC4697807, “Novel Zn^2+ Modulated GPR39 Receptor Agonists Do Not Drive Acute Insulin Secretion in Rodents” (PLoS ONE, 2015)
# Where two headings read alike, the source gives them in different places.
# Key:
# GPR39 = molecular target: T1, GPR39 (Homo sapiens, UniProt O43194); assay: Back-scattering interferometry (BSI) binding assay, HEK293s-hGPR39 membranes; parameters: Full length human (AF034633), rat (DM091294) and mouse (BC085285) GPR39; expressed in transfected cells; host or cells: HEK293s (ATCC CRL-1573), pIRESneo3 vector, selected clones
# T1 sequence (O43194 1-453): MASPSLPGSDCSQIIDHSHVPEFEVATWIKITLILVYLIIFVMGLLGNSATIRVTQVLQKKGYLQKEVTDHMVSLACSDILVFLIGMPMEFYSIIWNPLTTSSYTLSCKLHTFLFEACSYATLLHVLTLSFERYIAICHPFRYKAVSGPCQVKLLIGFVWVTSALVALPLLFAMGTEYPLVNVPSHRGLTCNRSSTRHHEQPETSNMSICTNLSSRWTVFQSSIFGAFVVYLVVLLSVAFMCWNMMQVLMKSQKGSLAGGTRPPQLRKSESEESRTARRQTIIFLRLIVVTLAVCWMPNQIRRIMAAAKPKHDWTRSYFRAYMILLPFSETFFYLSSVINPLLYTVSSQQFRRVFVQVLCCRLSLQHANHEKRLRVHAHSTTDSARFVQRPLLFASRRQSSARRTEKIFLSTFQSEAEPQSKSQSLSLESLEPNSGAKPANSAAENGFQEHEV
# Protocol: Membranes (1.3 mg protein/ml) from HEK293s-hGPR39 and untransfected HEK293s cells were diluted 11-fold in 50 mM Tris, pH 7.5, 5 μM ZnCl2, 0.3% DMSO. The compounds were diluted from 10 mM in DMSO to the final maximum stock concentration of 30 μM with 50 mM Tris, pH 7.5, 5 μM ZnCl2, 24.6 mM sucrose. A 3-fold serial dilution was performed with the compounds and refractive index-matched assay buffer, 50 mM Tris, pH 7.5, 5 μM ZnCl2, 24.6 mM sucrose, 0.3% DMSO. The compound serial dilutions were mixed 1:1 with either the GPR39 or wild type membrane fractions in a 96-well polypropylene microplate (Eppendorf, Hauppauge, NY). After a 2 hour incubation at room temperature, the plate was analyzed on a pre-commercial prototype BSI instrument (Molecular Sensing, Inc., Nashville, TN). Binding signal was expressed as the phase shift in the interference fringe patterns on a CMOS camera as measured in milliradians. The data from the wild type membrane fractions was subtracted from the GPR39-expressing fractions point by point to obtain the specific binding interaction of the compounds with GPR39 and fit to one-site binding or two-site binding models using built-in models in Graphpad Prism to determine K D values for each compound.
# [1] = Isothermal titration calorimetry (ITC) of compound with ZnCl2; settings: ITC at 30°C; single site binding model; ± SD; read-out: K D (Zn^2+-interaction)
# Protocol: To determine the binding affinities of the discussed compounds for Zn^2+, isothermal titration calorimetry experiments were conducted on a MicroCal ITC-200 system (Malvern Instruments) at a temperature of 30°C. The compounds, provided as a DMSO stock solution of 10 mM, were diluted in 50 mM HEPES (pH 7.4) and 150 mM NaCl to reach a final nominal concentration of 400 μM (= 4% (v/v) final DMSO concentration). Complete titration of the compounds was typically achieved by injecting 27 x 1.3 μl aliquots of 5 mM ZnCl2 provided in a matching buffer. The thermodynamic binding parameters were extracted by non-linear regression analysis of the binding isotherms (Microcal Origin version 7.0 software package). A single site binding model was applied, yielding binding enthalpy (ΔH), stoichiometry (n), entropy (ΔS), and association constant (Ka). All experiments have been performed in triplicate to allow for error estimations.
# [2] = Zn^2+ binding, two site binding model
# [3] = presence of 5 μM Zn^2+, one site binding model, read-out: K D ± SE
SMILES,pK D1 (high affinity site) (GPR39; [2]),pK D2 (low affinity site) (GPR39; [2]),"Kd (GPR39; Zn^2+ binding, two site binding model, read-out: K D1 (high affinity site) ± SE) [µM]","Kd (GPR39; Zn^2+ binding, two site binding model, read-out: K D2 (low affinity site) ± SE) [µM]",Kd (GPR39; [3]) [µM],Kd [1] [µM]
[Zn+2] [Zn^2+],6.27,3.68,0.53,211,–,–
"N#Cc1ccc(OCCn2ccnc2)c(OCCn2ccnc2)c1 [AZ1395, 3,4-bis-(2-imidazol-1-ylethoxy)-benzonitrile]",–,–,–,–,0.233 ± 0.07,52.1 ± 9.1
"Cc1nc2c(C(=O)O)cnn2c(O)c1Cc1ccc(Cl)cc1 [AZ4237, 6-[(4-chlorophenyl)methyl]-7-hydroxy-5-methyl-pyrazolo[1,5-a]pyrimidine-3-carboxylic acid]",–,–,–,–,0.048 ± 0.018,8.72 ± 1.06
"Cc1nc(-c2nc3c(c(=O)[nH]2)CN(C(=O)c2cccc(Cl)c2F)CC3)cs1 [AZ7914, 6-(3-chloro-2-fluoro-benzoyl)-2-(2-methylthiazol-4-yl)-3,5,7,8-tetrahydropyrido-[4,3-d]pyrimidin-4-one]",–,–,–,–,0.192 ± 0.085,30.6 ± 19.1
